The term melting point denotes the temperature, or range, at which the solid turns liquid.

For the compound `CCN1c2ncccc2C(=O)Nc2c1nc(N(C)C)c(Br)c2C`, the melting point fell in the range of 184 to 186 °C. The same measure for `COc1cc2cc(c1Cl)N(C)C(=O)CC(OC(=O)C(C)N(C)C(=O)C(C)C)C1(C)OC1C(C)C1CC(O)(NC(=O)O1)C(OC)C=CC=C(C)C2OC` (stereo not drawn): 176 to 179 °C; for `COC(=O)c1ccccc1S(=O)(=O)NCC#N`: 110 °C; for `CC(=O)NC[C@H]1CN(c2ccc(C3CCNCC3)c(F)c2)C(=O)O1`: 109 to 110 °C. `CNC(=O)c1cc2cc(S(N)(=O)=O)sc2s1` displayed a melting point of 272 to 273 °C. In the case of `CS(=O)(=O)c1ccc(C(CC2CCCC2)c2nc(Br)c(C(=O)C3CC3)[nH]2)cc1` (stereo not drawn) it was 160 to 161 °C; in that of `O=c1[nH]c2ncc(-c3cncnc3)nc2n1CC1CCCCC1`, above 260 °C; in that of `COC(=O)c1ccc2c(c1)SCCC2NC(=O)OCc1ccccc1` (stereo not drawn), 128 to 130 °C. The same measure for `O=C1CC(NCCCOc2cccc(CN3CCCCC3)c2)=Nc2ccccc21`: 171 to 172 °C; for `COc1ccc(C(=O)Nc2ccccc2)cc1NS(=O)(=O)c1ccc([N+](=O)[O-])cc1`: 224 to 227 °C. In the case of `CC(C)(C)OC(=O)Nc1ccncc1N` it was 124 to 126 °C; in that of `CC1Cc2cc(S(N)(=O)=O)cc(C(=O)NCC3CCCN3Cc3ccccc3)c2O1` (stereo not drawn), 161 to 167 °C; in that of `COc1ccc2c(c1)CCC1C2CCC2(C)C(OC(C)(C)C)CCC12` (stereo not drawn), 91 to 92.5 °C.

For `COC(=O)CC(=O)c1cc2cc(OC)c(OC)cc2s1`, the melting point was 129 to 130 °C.

`CON=C(C(=O)N(C)C)C(C)=NOCc1ccc(C)cc1` registered a melting point of 68 to 69 °C. The same measure for `Cc1oc(-c2ccccc2)nc1CCC(N)=O`: 149 to 150 °C; for `O=C(O)C(=O)c1cnsc1`: 145 to 148 °C; for `COc1cc(NC(=O)Nc2cnc3c(C)cc(C)cc3c2-c2ccccc2Cl)cc(OC)c1OC`: 204 to 206 °C. With `COC(=O)c1cc2cc(OC)c(OC)cc2cn1`, the melting point was found to be 215 °C. In the case of `CC(=NNC(=S)NCCN1CCOCC1)c1ccccn1` it was 168 to 169 °C; in that of `CCOC(=O)N(c1cccc(C(F)(F)F)c1)c1ccccc1[N+](=O)[O-]`, 45 to 48 °C.

`O=c1c2ccccc2ncn1CCN1CCC(Nc2nc3ccccc3n2Cc2ccc(F)cc2)CC1` gave a melting point of 191 °C. With `Cc1nnc(SCC2=C(C(=O)O)N3C(=O)C(NC(=O)CC4=CSCCS4)C3SC2)s1` (stereo not drawn), the melting point was found to be 170 °C. In the case of `O=C1N(CC2CCCO2)c2ccc(F)cc2C12COc1cc3c(cc12)CCO3` (stereo not drawn) it was 167 to 169 °C. The compound `COC(=O)CC(=O)C[C@@H]1[C@@H](N2C(=O)c3ccccc3C2=O)C(=O)N1C(=O)C(=O)OC` gave a melting point of 130 to 132 °C. In turn, `COc1ccc(C2=CCCS(=O)C2)cc1OC1CCCC1` (stereo not drawn) showed a melting point of 92 to 93 °C.

Compound `C=CCc1c(O)cc(C)c2ccc(=O)oc12` gave a melting point of 177 °C. On to `Cc1cc(-c2nnc3c4ccccc4c(OCc4ccncc4)nn23)no1`, for which the melting point lay in the range of 244 to 246 °C. In the case of `Cc1nc2cc(NS(=O)(=O)c3cc(Cl)ccc3Cl)ccc2o1` it was 194 °C. As to `CCOC(=O)COc1ccc(SCc2cccc3[nH]c(-c4ccc(C(F)(F)F)cc4)cc23)cc1C`, the melting point fell in the range of 85 to 88 °C. Compound `O=C(O)CS(=O)CCCCCn1nc(-c2ccccc2)c(-c2ccccc2)c1-c1ccccc1` (stereo not drawn) registered a melting point of 129 to 130 °C. The same measure for `Nc1sc(-c2ccc(F)cc2)cc1C(=O)O`: 172 to 174 °C. In the case of `CCOC(=O)c1cnc(=O)n2c1sc1cc(OC)ccc12` it was 231 to 232 °C; in that of `N=C(N)c1ccc2cc(OC(=O)CCCCCN)ccc2c1`, 122 to 123 °C; in that of `CC(=O)Nc1ccn(C2OC(COC(C)=O)C(Br)C2OC(C)=O)c(=O)n1` (stereo not drawn), 179 to 180 °C. In the case of `CCOC(=O)Nc1cccc(Nc2c3cccc(C)c3nc3c(C(=O)NCCN(C)C)cccc23)c1C` it was 182 to 183 °C; in that of `NS(=O)(=O)c1cccc(-c2cn(-c3nc(-c4ccc(C(F)(F)F)nc4)cc(C(F)F)n3)cn2)c1`, 220 °C; in that of `O=C(c1cc(C2CCCCC2)ccn1)N(O)Cc1ccccc1`, 106 to 110 °C. `CC(=O)c1c(-c2cc(C)cs2)sc(-c2ccncc2)c1C`: the melting point fell in the range of 106 to 108 °C. The same measure for `CNC(=S)NCc1cc(-c2ccccc2)no1`: 118 °C; for `COc1cc(Cn2cc(CCC(=O)O)c(-c3ccccc3)c2)cc(OCc2csc(-c3cnccn3)n2)c1`: 111 to 112 °C. In the case of `COc1c(O)c(OC)c2c(=O)cc(-c3ccc(O)c(O)c3)oc2c1OC` it was 279 to 281 °C; in that of `CCCCn1c(O)cc(C)c(C#N)c1=O`, 218 to 222 °C. The same measure for `O=C(C1CCC(Nc2nccc(-n3cc(Cc4ccc(-c5ccncc5)cc4)nn3)n2)CC1)N1CCC(O)CC1` (stereo not drawn): 266 to 267 °C.

Consider `COC(=O)c1ccccc1Nc1ccccc1`, for which the melting point fell in the range of 92.5 to 102 °C. Compound `CC(C)Cn1c(=O)n(C)c(=O)c2c(Sc3cccs3)c(Cn3cnc4ccccc43)sc21` displayed a melting point of 198 °C. The same measure for `CCOC(=O)NNC(=O)Cc1noc(C)n1`: 122 to 124 °C; for `O=c1ccc2cc(OC3O[C@H](CO)[C@@H](O)[C@H](O)[C@H]3O)c(OCc3ccccc3)cc2o1` (stereo partly drawn): 184 to 186 °C. Compound `COC(OC)C1CN=C(c2cc3sc(C)c(N(C)S(=O)(=O)c4cccs4)c3[nH]2)S1` (stereo not drawn) had a melting point of 185 °C. In turn, `CCN1C(=O)C(C)(C)C(=O)N(C)c2cc(OCCCn3c(=O)c(-c4ccccc4)c(Cl)c4ccccc43)ccc21` had a melting point of 122 to 128 °C. Compound `COc1cc2c(cc1OC)CN(CCc1ccc(N)cc1)C2` returned a melting point of 150 °C.

As for `CC(OCc1ccc(-c2ccc(Cl)cc2)cc1)(C(=O)O)c1ccccc1` (stereo not drawn), the melting point is 125 to 126 °C.

For `NC(=O)NCCC[C@H](NCC(O)C(O)C(O)C(O)CO)C(=O)O` (stereo partly drawn), the melting point worked out at 176 °C. The same measure for `CS(=O)(=O)c1ccc(-c2cnn(CC(F)(F)F)c(=O)c2SC2CCCCC2)cc1`: 165 to 167 °C; for `CCOC(=O)C(C)(C)C(O)C(c1ccc(Cl)cc1)n1ccnc1` (stereo not drawn): 120 to 124 °C; for `COC(=O)NCc1cc(C(C)=NOCc2cccc(C)n2)ccc1C`: 72 to 75 °C. In the case of `CCCN(CCC)C1Cc2cc3c(=O)[nH][nH]c(=O)c3cc2C1` it was above 300 °C; in that of `Cc1c(SCCSCc2ccncc2)ccnc1CNc1cnc2ccccc2c1`, 123 to 126 °C. In the case of `CC(=O)Oc1cc(OC(C)=O)c2ccc(=O)[nH]c2c1` it was 230 to 232 °C; in that of `O=C(O)CCCNC(=O)COc1ccccc1`, 91 to 94 °C; in that of `Cc1ccc(N(c2ccc(C)cc2)c2ccc(-c3ccc(N(c4ccc(C)cc4)c4ccc(C)cc4)cc3)cc2)cc1`, 215 to 216 °C. In turn, `CNc1nc(-c2ccc(OCCCn3ccnc3)cc2)no1` displayed a melting point of 154 to 155 °C. In the case of `COC(=S)c1nc(Br)nc(C)c1Cl` it was 105 to 106 °C. The same measure for `COCCOc1ncccc1S(N)(=O)=O`: 102 to 103 °C. `CCOc1ccc2c(c1)C(C)(c1ccccc1Cl)C(=O)N2S(=O)(=O)c1ccc(C(=O)NC(C)(C)CF)cc1` (stereo not drawn) yielded a melting point of 182 °C. In the case of `COc1cc(CNC(c2ccccc2)c2ccccc2)ccc1O` it was 115 to 118 °C. The same measure for `CCCOc1cnc(CO)cc1O`: 159 to 160 °C. The same measure for `C=Cc1c(C)c(NC(=O)CC(C)(C)C)c(C)c2c1OCC2c1ccc(C(C)C)cc1` (stereo not drawn): 171 to 172 °C.

For `NNC(=O)c1ncnc2[nH]ccc12`, the melting point lay within 252 to 254 °C.

`CC(C)c1cccc(CC(=O)O)c1OCCCc1cn(-c2ccc(C(F)(F)F)cn2)nc1C(C)C` came in with a melting point of 108 to 109 °C. The same measure for `COc1cc(NC(=O)C(C)(C)C)ccc1C(=O)N(C)C`: 143 to 144 °C. In the case of `CCc1nnc2ccc(-c3ccccc3)nn12` it was 133 to 135 °C; in that of `N#Cc1cc2c(cc1F)S(=O)(=O)N=CN2C1CC1`, 205 to 207 °C. Regarding `COc1cc2c(Nc3ccc(Sc4ccccn4)c(Cl)c3)c(C#N)cnc2cc1F`, the melting point is 225 to 228 °C. In the case of `C[Si](C)(C)OC1(C#N)CCC(C(=O)NCc2cccc3ccccc23)c2ccccc21` (stereo not drawn) it was 55 to 56 °C; in that of `c1ccc2c3c([nH]c2c1)C(c1ccc2c(c1)OCO2)NCC3` (stereo not drawn), 173 °C. The same measure for `NC(=O)C1=NN(c2cccc(COCC3CCCCC3)c2)C(c2ccccc2F)N1` (stereo not drawn): 148 to 149 °C. The same measure for `N#Cc1c(N2CCN(C(=O)c3ccco3)CC2)c2cc(F)cnc2[nH]c1=O`: 312 °C; for `COc1ccc(C=Cc2nc3c([nH]2)c(=O)n(C)c(=O)n3C)cc1OC`: above 320 °C; for `CCc1noc(C)c1-c1[nH]c2ccccc2c1C(O)CCN(C)C` (stereo not drawn): 166 to 169 °C. Take `O=C(O)C=Cc1cccc(CCc2nc(-c3ccccc3)c(-c3ccccc3)o2)c1`: the melting point was in the range of 114 to 115 °C. `CNC(=S)N(C)c1ccc(OC)nc1` returned a melting point of 116 °C. The same measure for `COc1ccc2c(c1)C(=NOCCCN)c1c-2c(N2CCNCC2)nc2ccccc12`: 89 to 90 °C; for `COc1ccc(CCNC(=O)c2nc(N)sc2-c2ccncc2)cc1OC`: 167 to 168 °C. The same measure for `Clc1ccccc1-c1cnn2cnnc2n1`: 162 to 165 °C; for `CC(C)(C)OC(=O)COCCCCS(=O)(=O)c1cnc(-c2ccccc2)c(-c2ccccc2)n1`: 88 to 90 °C; for `CCC(Oc1ccccc1)C(=O)NCCO[N+](=O)[O-]` (stereo not drawn): 59 to 61 °C. The same measure for `CS(=O)(=O)c1ccc(-c2cc(C(=O)CCCCCO)nn2C2CCCCC2)cc1`: 125 to 127 °C.

The values are drawn from a melting point compilation (Tetko et al.; mined from patent text by program, amines drawn as free bases though some values may be those of a salt).
